SMILES strings stand for the structures. Values after ≈ are worked out from the molar mass of the structure shown.

The conditions of the data set: buffer; pH 7.4; 200.0 µM.
For orientation: solubility (kinetic) means solubility judged after dilution from a stock solution rather than from solid. As for `COCCNS(=O)(=O)c1ccc(C)c(C)c1C`, the kinetic solubility was 34.9 µg/mL (≈ 136 µM). With `CCc1nnc(NC(=O)C2CCCO2)s1` (stereo unspecified), the solubility (kinetic) is more than 34.1 µg/mL.

Regarding `O=C(Nc1ccc(Cl)cc1)N1CCN(Cc2ccc3c(c2)OCO3)CC1`, the kinetic solubility was determined as 5.7 µg/mL (≈ 15.2 µM). Take `CC1(C)CC(=O)C=C(Nc2ccccc2N)C1`: the kinetic solubility was more than 34.5 µg/mL. The same measure for `O=C1CSC(=S)N1c1ccc(F)c(Cl)c1`: 1.3 µg/mL (≈ 4.97 µM). The same measure for `N#Cc1ncn(-c2ccc(Oc3ccccc3)cc2)c1N`: 4 µg/mL (≈ 14.5 µM); for `CN(C)C(=O)C(NC(=O)c1ccccc1)=C(Cl)Cl`: 42 µg/mL (≈ 146 µM); for `O=C(Nc1cc(Cl)ccc1N1CCOCC1)c1ccc(=O)[nH]c1`: 38.1 µg/mL (≈ 114 µM). The same measure for `CN(CC(=O)Nc1cccnc1Cl)S(=O)(=O)c1ccc(Cl)cc1`: 24.9 µg/mL (≈ 66.5 µM); for `COC(CNC(=O)c1ccc2c(c1)ncn2C1CCCCCC1)OC`: more than 51.8 µg/mL. For `CCC(=NC)C1=C(O)CC(c2ccccc2)CC1=O` (stereo unspecified), the kinetic solubility is more than 38.6 µg/mL. The same measure for `O=C(COC(=O)c1cc(Cl)ccc1O)NCC1CCCO1` (stereo unspecified): more than 47.1 µg/mL; for `COc1ccc(C(=O)Nc2cccc3nc(C)ccc23)cc1OC`: 16.6 µg/mL (≈ 51.5 µM).

The compound `CCc1noc(C)c1C(=O)Nc1cccc2ncccc12` displayed a solubility (kinetic) of more than 42.2 µg/mL.

`CC(=O)NCCN1C(=O)S/C(=C\c2cccs2)C1=O` came in with a kinetic solubility of more than 44.5 µg/mL.

For the compound `N#Cc1c(N)nc(Sc2ccc(Cl)cc2)c(C#N)c1-c1ccccc1Cl`, the solubility (kinetic) was less than 0.2 µg/mL. The same measure for `Cc1ccccc1CNC(=O)COc1ccccc1`: more than 38.3 µg/mL. As to `COc1cc(-c2csc(NC3CCCCC3)n2)cc(OC)c1OC`, the solubility (kinetic) turned out to be 6.6 µg/mL (≈ 18.9 µM). The same measure for `C/C(=N\NC(N)=O)c1c(O)n(C)c(=O)n(C)c1=O`: more than 38.3 µg/mL. Compound `O=C(NCCc1csc(-c2cccnc2)n1)c1c(F)cccc1F` displayed a kinetic solubility of 48.9 µg/mL (≈ 142 µM).

Turning to `COc1ccc(NC(=O)C2C3CCC(O3)C2C(=O)O)c(C)c1` (stereo unspecified), the solubility (kinetic) came out at 45.4 µg/mL (≈ 149 µM). The same measure for `CC(=O)C1=C(c2ccccc2)NC(=O)NC1c1ccccc1` (stereo unspecified): more than 43.9 µg/mL; for `Cc1cc(C)n2cc(CSc3ccc(Cl)cc3)nc2n1`: more than 45.6 µg/mL; for `COc1ccc(NC(=O)c2sc3nc(C)cc(C)c3c2N)c(OC)c1`: less than 0.3 µg/mL.

In turn, `COCCNC(=O)c1cc2c(=O)[nH]c3ccccc3c2s1` came in with a kinetic solubility of 3.2 µg/mL (≈ 10.6 µM). Take `Cc1cc(C)nc(Nc2ccc(Cl)cc2C)n1.Cl`: the kinetic solubility was 21.2 µg/mL.

The compound `COCc1cc(C)nc(SCC(=O)Oc2ccc(Cl)cc2)c1C#N` registered a kinetic solubility of 9.4 µg/mL (≈ 25.9 µM). The same measure for `N#Cc1ccccc1-c1ccccc1C(=O)N1CCCCC1`: more than 43.6 µg/mL; for `CSc1ccccc1C(=O)Nc1cccc([N+](=O)[O-])c1`: 28.2 µg/mL (≈ 97.8 µM).

Consider `O=C(Cn1c(CO)nc2ccccc21)NCCc1ccc(F)cc1`, for which the kinetic solubility turned out to be 36.7 µg/mL (≈ 112 µM). The same measure for `CCOc1ccc2nc(Cl)sc2c1`: less than 0.5 µg/mL; for `Cc1ccc(S(=O)(=O)NCCSc2ncccn2)cc1`: more than 46.4 µg/mL. The same measure for `CCC(=O)Nc1ccc(Cl)c(-c2nc3ncccc3o2)c1`: more than 45.3 µg/mL; for `CN(Cc1ccccc1)C(=O)COC(=O)c1ccc(Br)o1`: more than 52.8 µg/mL; for `CCOC(=O)N1CCN(C(=O)CNC(=O)c2ccccc2F)CC1`: more than 50.6 µg/mL. The same measure for `O=C(CCCOc1ccc(Cl)cc1Cl)NCc1ccncc1`: 43.6 µg/mL (≈ 129 µM). For the compound `CN(C)C(=O)CN1C(=O)c2cccc3cccc1c23`, the solubility (kinetic) turned out to be 33.1 µg/mL (≈ 130 µM). The same measure for `O=[N+]([O-])c1ccc(Nc2ccccc2O)c2nonc12`: more than 40.8 µg/mL; for `CCCCOC(=O)c1ccc(NC(=O)C(=O)NCCN(CC)CC)cc1`: 44.3 µg/mL (≈ 122 µM); for `CCc1noc(C)c1C(=O)OCC(=O)c1ccc(NC(C)=O)cc1F`: 9.1 µg/mL (≈ 26.1 µM). The compound `CSc1ccccc1C(=O)NCCCn1ccnc1` showed a kinetic solubility of more than 41.3 µg/mL. Regarding `CC(=O)Nc1ccc(C(=O)COC(=O)C2CCCCC2)c(F)c1`, the kinetic solubility was found to be 10.7 µg/mL (≈ 33.3 µM).

Compound `CCC(C)NC(=O)c1cc2c(=O)n(CC)c3ccccc3c2s1` (stereo unspecified) showed a kinetic solubility of 2.3 µg/mL (≈ 7 µM). `Cc1c(C(=O)Nc2ccc3c(c2)OCO3)oc2ccccc12` displayed a kinetic solubility of 2.9 µg/mL (≈ 9.82 µM).

Compound `Cc1noc(C)c1C(=O)NCC1COc2ccccc2O1` (stereo unspecified) showed a kinetic solubility of more than 43.2 µg/mL. In turn, `Nc1nc(SCc2ccc(F)cc2)ns1` showed a kinetic solubility of 33.6 µg/mL (≈ 139 µM). The same measure for `Cc1cccc(Oc2c([N+](=O)[O-])c(=O)n(C)c3ccccc23)c1`: 6.6 µg/mL (≈ 21.3 µM); for `CCN(C(=O)CCc1ccccc1)C1CCCCC1`: 26.8 µg/mL (≈ 103 µM); for `O=C(Nc1nc2ccccc2[nH]1)c1ccccc1[N+](=O)[O-]`: more than 42.3 µg/mL. `O=C(O)CC(c1ccccc1F)N1Cc2ccccc2C1=O` (stereo unspecified) registered a kinetic solubility of 43.7 µg/mL (≈ 146 µM).

Regarding `NC(=O)CS(=O)(=O)c1nc2ccccc2n1Cc1ccccn1`, the solubility (kinetic) was more than 49.6 µg/mL. The same measure for `CC(CCc1ccccc1)NCC(O)COc1ccccc1` (stereo unspecified): 43.1 µg/mL (≈ 144 µM). The same measure for `CCOC(=O)C1CCCN(C(=S)NC2CCCCC2)C1` (stereo unspecified): more than 44.8 µg/mL; for `Cc1ccc(C(=O)CCC(=O)Nc2ccccc2F)cc1`: 4.8 µg/mL (≈ 16.8 µM). The same measure for `CCNC(=O)COc1ncnc2scc(-c3ccc(F)cc3)c12`: more than 49.7 µg/mL.

Take `CC1(C(=O)NCc2ccc(F)cc2)Oc2ccccc2NC1=O` (stereo unspecified): the solubility (kinetic) is more than 47.1 µg/mL. The same measure for `Cc1ccnc(S(=O)(=O)Cc2ccc([N+](=O)[O-])cc2)n1`: more than 44 µg/mL.

Regarding `COc1ccc(C(=O)NC2=Nc3ccccc3N=C(C)C2c2ccccc2)cc1` (stereo unspecified), the solubility (kinetic) was 22.6 µg/mL (≈ 58.9 µM). The same measure for `Cc1ccc(OC(=O)c2cncc(Br)c2)c(C)c1`: 6.8 µg/mL (≈ 22.2 µM); for `COc1cc2c(cc1OC)C(C)N(C(=O)Nc1ccc(F)cc1)CC2` (stereo unspecified): 18.4 µg/mL (≈ 53.4 µM); for `O=C(Nc1ccccc1)Nc1ccc(Oc2cccnc2)nc1`: 20.5 µg/mL (≈ 66.9 µM).

Take `O=C(NCCN1C(=O)S/C(=C\c2ccc(Cl)cc2)C1=O)C1=COCCO1`: the kinetic solubility was 2.6 µg/mL (≈ 6.59 µM).

`Cc1cccc2cc(-c3nc4ccc(C(=O)O)cc4[nH]3)c(=O)oc12`: the kinetic solubility is 26.9 µg/mL (≈ 84 µM). The same measure for `CCC(=O)Nc1cccc(NC(=O)c2ccc(C)cc2Cl)c1`: 0.6 µg/mL (≈ 1.89 µM).

In turn, `CC(C)COC(=O)N1C[C@H](O)C[C@H]1C(=O)Nc1ccc(Cl)cc1` showed a solubility (kinetic) of more than 51.1 µg/mL.

The compound `CC1CN(C(=O)CCCN2C(=O)c3ccccc3C2=O)CC(C)O1` (stereo unspecified) showed a solubility (kinetic) of more than 49.6 µg/mL.

`CCCN1CCN(S(=O)(=O)c2cn(C)nc2C)CC1` came in with a solubility (kinetic) of more than 43 µg/mL. Turning to `COc1ccc(Nc2c3c(nc4ccc(C)cc24)CCC3)cc1.Cl`, the solubility (kinetic) is 36.6 µg/mL. `O=C(CSC(=S)N1CCCC1)NCCc1ccccc1`: the kinetic solubility is more than 46.3 µg/mL.

The compound `CS(=O)(=O)NCCCNc1ccc(C(F)(F)F)cc1[N+](=O)[O-]` registered a solubility (kinetic) of more than 51.2 µg/mL. `CCC(=O)Nc1ccc2c(c1)nc1n2CCN(CCOC)C1` displayed a solubility (kinetic) of more than 45.4 µg/mL.

`COc1ccc2c(c1)c1ncn(Cc3ccccn3)c(=O)c1n2C` yielded a kinetic solubility of 13.6 µg/mL (≈ 42.5 µM). Compound `CC(Sc1nccn1C)C(=O)Nc1ccccc1` (stereo unspecified) yielded a solubility (kinetic) of more than 39.2 µg/mL. Compound `CC(=O)c1cn(Cc2ccc(F)cc2)c2ccccc12` showed a kinetic solubility of 1.9 µg/mL (≈ 7.11 µM). The same measure for `Cc1cccc(NP(=O)(Oc2ccccc2)Oc2ccccc2)c1C`: less than 0.8 µg/mL. The same measure for `O=C(COc1ccccc1)NC1CCCCCCC1`: 36.2 µg/mL (≈ 139 µM).

For the origin of these results see PubChem BioAssay AID1996.
